These results are taken from article PMC11879040, “Advancing systemic toxicity risk assessment: Evaluation of a NAM-based toolbox approach” (Toxicological Sciences, 2024).

Where two headings read alike, the source gives them in different places.

For data set [1], the system named is Potassium Voltage-Gated Channel Kv non-selective, KCNQ1 (r). The experiment in a line: IPP KCNQ1 binding (antagonist radioligand). Set-up: species or system rat. To be noted: control α-dendrotoxin.
Data set [2] relates to Gamma-aminobutyric acid receptor subunit alpha-1 BZD site, GABRA1A (r). In kind it is binding, rat. To be noted: control diazepam.
For data set [3], the system named is Sodium channel protein type 5 subunit alpha (site 2), SCN5A (r). In kind it is binding, rat. Particulars: control veratridine.
The target of data set [4] is T1, Adenosine receptor A2a, ADORA2A (h) (Homo sapiens, UniProt P29274).
T1 construct: purchased Eurofins Cerep (SafetyScreen44-based IPP panel)
The experiment in a line: IPP ADORA2A binding (agonist radioligand). To be noted: control NECA.

Data set [5] has as its target T2, Constitutive androstane receptor CAR, NR1I3 (h) (Homo sapiens, UniProt Q14994).
T2 sequence (Q14994 1-352): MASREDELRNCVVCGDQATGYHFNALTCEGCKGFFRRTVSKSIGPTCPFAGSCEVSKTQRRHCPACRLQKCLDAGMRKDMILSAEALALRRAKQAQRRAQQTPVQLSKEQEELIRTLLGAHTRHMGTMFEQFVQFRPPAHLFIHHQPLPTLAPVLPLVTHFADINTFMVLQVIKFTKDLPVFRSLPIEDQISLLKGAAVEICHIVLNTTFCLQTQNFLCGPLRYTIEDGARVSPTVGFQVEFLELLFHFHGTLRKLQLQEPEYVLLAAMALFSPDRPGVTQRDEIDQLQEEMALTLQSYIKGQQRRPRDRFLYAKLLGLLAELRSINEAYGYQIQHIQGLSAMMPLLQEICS
It is filed as biochemical.

Data set [6] deals with T3, Estrogen receptor, ER1 (h) (Homo sapiens, UniProt P03372).
T3 construct: purchased Eurofins Cerep (SafetyScreen44-based IPP panel)
T3 sequence (P03372 1-595): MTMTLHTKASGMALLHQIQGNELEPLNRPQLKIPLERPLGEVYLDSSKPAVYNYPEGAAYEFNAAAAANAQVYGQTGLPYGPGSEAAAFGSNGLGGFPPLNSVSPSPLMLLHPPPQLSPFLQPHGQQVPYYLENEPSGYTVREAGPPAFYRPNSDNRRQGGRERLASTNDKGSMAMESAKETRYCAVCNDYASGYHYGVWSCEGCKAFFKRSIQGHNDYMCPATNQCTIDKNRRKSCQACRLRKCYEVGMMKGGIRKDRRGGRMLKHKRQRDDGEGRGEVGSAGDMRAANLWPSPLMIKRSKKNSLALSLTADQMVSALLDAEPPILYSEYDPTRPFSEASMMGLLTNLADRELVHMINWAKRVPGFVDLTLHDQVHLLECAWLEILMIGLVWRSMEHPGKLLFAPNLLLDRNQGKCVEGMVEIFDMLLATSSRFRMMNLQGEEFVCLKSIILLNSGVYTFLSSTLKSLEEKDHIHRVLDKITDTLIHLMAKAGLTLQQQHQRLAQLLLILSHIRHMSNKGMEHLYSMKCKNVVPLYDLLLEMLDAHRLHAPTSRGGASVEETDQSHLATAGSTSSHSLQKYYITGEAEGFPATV
The experiment in a line: IPP ER1 coactivator recruitment (agonist). It is filed as biochemical. To be noted: 100 uM, estriol, * denotes assay interference (2-Amino-6-chloro-4-nitrophenol, HC Red 3).

Data set [7] addresses T3, Estrogen receptor, ER1 (h). The experiment in a line: IPP ER1 coactivator recruitment (antagonist). In kind it is biochemical. Particulars: 100 uM, estriol, * denotes assay interference (2-Amino-6-chloro-4-nitrophenol, HC Red 3).
The test system of data set [8] is Thyroid hormone receptor alpha, THRA (h). The experiment in a line: IPP THRA coactivator recruitment (agonist). It is filed as biochemical, human. To be noted: agonist, T3.
A further data set concerns Tubulin (r). The experiment in a line: IPP Tubulin binding. Particulars: ligand/control Colchicine. Set-up: species or system rat.
For data set [9], the system named is HepG2 cells. The experiment in a line: Cell stress panel (CSP), 24 h, 8 concentrations, BIFROST global PoD. It is filed as cell-based. To be noted: HepG2; cell stress panel PoD. The method, then:
Compounds were tested using the previously developed cell stress panel ([Hatherell et al. 2020]) and the expanded biomarker panel outlined in Middleton et al. HepG2 cells were treated with all compounds for 24 h across 8 concentrations prior to biomarker analysis. The same plate layout and number of replicates (3 biological and 2 technical) were used as previously for each assay within the panel.

The test system of data set [10] is HepG2 cells. The experiment in a line: High-throughput transcriptomics (HTTr, TempO-Seq), HepG2, 24 h. In kind it is cell-based, human. Particulars: HepG2. The method, then:
(§1) HepG2, HepaRG, and MCF7 cells were treated with each compound for 24 h across a dose range of 7 concentrations and lysed using TempO-Seq lysis buffer (BioSpyder Technologies, proprietary kit, see [Middleton et al. 2022] for method details). Sequencing was performed using TempO-Seq (BioClavis) version 2 of the human whole transcriptome panel and analyzed as described previously in Middleton et al.

A further data set deals with HepaRG cells. The experiment in a line: High-throughput transcriptomics (HTTr, TempO-Seq), HepaRG, 24 h. In kind it is cell-based, human. To be noted: HepaRG. The method, then: as §1
The subject of a further data set is MCF7 cells. The experiment in a line: High-throughput transcriptomics (HTTr, TempO-Seq), MCF7, 24 h. In kind it is cell-based, human. Particulars: MCF-7. The method, then: as §1
Data set [11] has as its system 63 targets with known safety liabilities. The experiment in a line: In vitro pharmacological profiling (IPP) panel, screening at 10 or 100 µM and dose response, minimum IC50/AC50. It is filed as biochemical. To be noted: lowest AC50 across IPP panel (systemic targets); cell_type -; read-out: ipp_lowest_ac50_systemic PoD.
The subject of data set [12] is Glutamate receptor ionotropic NMDA 1 non-selective, GRIN1 (r). Particulars: control CGS 19755.
The target in data set [13] is Potassium voltage-gated channel subfamily H member 2 hERG, KCNH2 (h) (Homo sapiens, UniProt Q12809).
Data set [14] deals with T4, Pregnane X receptor PXR, NR1I2 (h) (Homo sapiens, UniProt O75469).
T4 sequence (O75469 1-434): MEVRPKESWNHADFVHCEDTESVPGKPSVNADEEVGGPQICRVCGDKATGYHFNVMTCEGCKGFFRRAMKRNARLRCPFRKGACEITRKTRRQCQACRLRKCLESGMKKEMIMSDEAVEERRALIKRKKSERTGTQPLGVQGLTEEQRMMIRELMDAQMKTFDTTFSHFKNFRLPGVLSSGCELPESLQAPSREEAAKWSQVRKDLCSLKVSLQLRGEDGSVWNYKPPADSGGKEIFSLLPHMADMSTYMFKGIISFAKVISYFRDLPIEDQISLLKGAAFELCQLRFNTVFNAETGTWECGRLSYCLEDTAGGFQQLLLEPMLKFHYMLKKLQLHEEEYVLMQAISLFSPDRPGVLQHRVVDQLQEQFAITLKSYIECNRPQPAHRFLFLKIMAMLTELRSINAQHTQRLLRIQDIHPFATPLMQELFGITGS

The conditions of data set [15]: human.
Another data set has as its system rat. Particulars: cited from earlier work.
For data set [16] the following is noted: PBK level L2; per chemical see Peff Reference; ref [3],[4],[11]; cited from earlier work.
For data set [17] the following is noted: cited from earlier work.
The conditions of data set [18]: PBK level L2; single value or median; ref [2],[4],[6],[7],[8],[10],[11],[15],[18],[27],[34]; cited from earlier work.
For data set [19] the following is noted: PBK level L2; taken or scaled from references (median where several); ref [6],[7],[10],[19]; cited from earlier work.
The target of data set [20] is T4, Pregnane X receptor PXR, NR1I2 (h). The experiment in a line: IPP PXR coactivator recruitment (agonist). To be noted: 10 uM, T0901317 for control.
For data set [21] the target is unchanged. The experiment in a line: IPP PXR coactivator recruitment (antagonist). To be noted: 10 uM, ligand T0901317.
A short description of data set [22]: Assignment of risk classifications to benchmark chemical-exposure scenarios.

A word on the NOAEL: it is the highest tested level that showed no adverse finding.

Potassium voltage-gated channel subfamily H member 2 hERG, KCNH2 (h), sequence (Q12809 whole entry): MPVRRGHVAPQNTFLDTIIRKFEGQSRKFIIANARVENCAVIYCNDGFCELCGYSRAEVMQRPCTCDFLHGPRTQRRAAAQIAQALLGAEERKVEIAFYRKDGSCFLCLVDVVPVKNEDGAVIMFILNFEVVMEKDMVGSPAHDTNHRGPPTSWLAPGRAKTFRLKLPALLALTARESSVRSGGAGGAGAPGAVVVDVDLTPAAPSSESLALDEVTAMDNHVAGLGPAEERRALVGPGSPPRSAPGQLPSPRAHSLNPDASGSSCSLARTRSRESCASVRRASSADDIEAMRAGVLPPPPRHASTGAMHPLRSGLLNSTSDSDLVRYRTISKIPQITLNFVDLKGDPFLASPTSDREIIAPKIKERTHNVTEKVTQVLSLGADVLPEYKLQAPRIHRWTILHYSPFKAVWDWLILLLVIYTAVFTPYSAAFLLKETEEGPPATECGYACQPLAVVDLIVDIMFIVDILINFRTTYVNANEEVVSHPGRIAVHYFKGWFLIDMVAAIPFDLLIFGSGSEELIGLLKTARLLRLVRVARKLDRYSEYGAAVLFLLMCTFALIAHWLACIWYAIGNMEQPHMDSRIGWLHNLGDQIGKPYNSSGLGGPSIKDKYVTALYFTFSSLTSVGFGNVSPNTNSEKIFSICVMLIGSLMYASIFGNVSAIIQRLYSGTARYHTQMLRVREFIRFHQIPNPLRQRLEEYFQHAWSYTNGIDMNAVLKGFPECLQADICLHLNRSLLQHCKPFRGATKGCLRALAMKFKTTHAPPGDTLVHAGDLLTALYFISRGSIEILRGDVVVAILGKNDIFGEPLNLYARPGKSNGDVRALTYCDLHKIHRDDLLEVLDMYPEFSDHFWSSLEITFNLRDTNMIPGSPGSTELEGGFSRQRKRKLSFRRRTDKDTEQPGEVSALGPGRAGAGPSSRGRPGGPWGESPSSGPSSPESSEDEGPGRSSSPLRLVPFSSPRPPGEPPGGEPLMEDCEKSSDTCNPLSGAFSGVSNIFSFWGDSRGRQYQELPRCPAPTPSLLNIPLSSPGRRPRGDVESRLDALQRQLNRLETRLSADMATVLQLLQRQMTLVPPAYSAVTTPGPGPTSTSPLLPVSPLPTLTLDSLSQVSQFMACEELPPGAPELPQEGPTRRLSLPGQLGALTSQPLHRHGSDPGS
T1 sequence (P29274 whole entry): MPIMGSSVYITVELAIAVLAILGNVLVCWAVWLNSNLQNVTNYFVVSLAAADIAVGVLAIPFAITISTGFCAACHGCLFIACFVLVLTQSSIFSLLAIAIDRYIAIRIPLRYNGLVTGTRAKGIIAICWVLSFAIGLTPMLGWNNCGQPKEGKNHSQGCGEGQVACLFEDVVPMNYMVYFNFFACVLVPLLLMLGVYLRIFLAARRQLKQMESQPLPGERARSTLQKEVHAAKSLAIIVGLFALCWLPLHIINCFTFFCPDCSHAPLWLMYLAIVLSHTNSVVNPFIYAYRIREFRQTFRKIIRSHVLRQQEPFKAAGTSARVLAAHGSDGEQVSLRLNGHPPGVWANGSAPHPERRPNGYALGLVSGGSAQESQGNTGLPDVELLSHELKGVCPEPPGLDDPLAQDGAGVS

As for `Nc1cc([N+](=O)[O-])cc(Cl)c1O` [2-Amino-6-chloro-4-nitrophenol], the Specific binding in data set [1] (IPP screening at 100 uM) is listed as 13.7%; in [2] (IPP screening at 100 uM), 14.3%; in [3] (IPP screening at 100 uM), 31.5%; in data set [4] (IPP screening at 100 uM), 3.6%; in data set [12] (IPP screening at 100 uM) it was 21.2%. For the same molecule, the “IPP Dose Response PoD: CAR antagonist effect” value in [5] was “[40.9,86.1]”. In addition, the “IPP screening %, Coactivator recruitment” value in [6] is 6.0* %; in data set [7], -9.0* %; in data set [8] (100 uM, * denotes assay interference (2-Amino-6-chloro-4-nitrophenol, HC Red 3)) it was 41.0* %. For the same molecule, the “IPP screening %, Specific binding” value is reported as 5.0% in the data set on Tubulin (r) (100 uM) and 10.7% in data set [13] (human, 100 µM). Moreover, in the data set with HepG2 cells [9], the “pod_cell_stress PoD” value is reported as 0.2197 µM. In addition, the figures for the “pod_httr_bifrost PoD” value in the data set on HepG2 cells [10] (HTTr BIFROST PoD), with HepaRG cells (HTTr BIFROST PoD) and in the data set on MCF7 cells (HTTr BIFROST PoD) were 0.8029 µM, 1.518 µM and 0.4471 µM, respectively. Besides, the “podl_path_minbmd PoD” value amounted to 158.096 µM in the data set with HepG2 cells [10] (HTTr minimum pathway BMD(L)), 35.7772 µM in the data set on HepaRG cells (HTTr minimum pathway BMD(L)) and 9.316 µM with MCF7 cells (HTTr minimum pathway BMD(L)). In data set [11], the AC50 was 1.53 µM. Besides, in data set [14], the “IPP Dose Response PoD: PXR antagonist” value was “[37.1,80.3]”. For the same molecule, the risk in data set [15] amounted to 0. Moreover, the NOAEL in the data set on rat (90-day rat study, increased liver weights, ref [2]) was 10 mg/kg bw/day. In addition, the “dose up to which no maternal or fetal effects were observed” value in the data set with rat (reproductive and developmental toxicity rat study, ref [2]) is 90 mg/kg bw/day. Besides, the Peff in data set [16] is listed as 7.96 cm/s x E-04.
As to `CCCCOC(=O)c1ccc(O)cc1` [Butylparaben, Butyl 4-hydroxybenzoate], the Specific binding was 1.5% in [1] (IPP screening at 10 uM); 12.4% in data set [2] (IPP screening at 10 uM); 23.9% in [3] (IPP screening at 10 uM); 5.4% in data set [4] (IPP screening at 10 uM); -5.2% in [12] (IPP screening at 10 uM). Further, the “IPP screening %, Coactivator recruitment” value in data set [8] (10 uM) was determined as 2.0%; in [20] it was 3.1%; in data set [21], 6.9%. In addition, the “IPP screening %, Specific binding” value in the data set on Tubulin (r) (10 uM) is 8.0%; in data set [13] (10 uM, [3H] Dofetilide, control Terfenadine), -13.5%. Besides, the “pod_cell_stress PoD” value in the data set with HepG2 cells [9] is recorded as 4.378 µM. In [17] (ref SCCS), the BMDL5 is on record as 24 mg/kg/day. Further, in data set [17] (ref not given), the “Real NOAEL” value is recorded as 1000 mg/kg/day. Also, in data set [17] (studies stated to be flawed, ref Oishi), the “alternative lowest PoD” value is 14.4 mg/kg/day. Further, the “PoD (LOAEL)” value with rat (rat, subchronic - 8 weeks, ref Oishi) is recorded as 10 mg/kg bw/day. Further, the Fup in data set [18] is recorded as 5.64%. In addition, the “Intrinsic Liver Clearance” value in [19] is 799.2 L/h. The “Risk Classification” value in [22] (Dermal […] in Body Lotion) was “Low risk”. The same molecule showed a risk in [22] (Dermal, […] (regulation says limit is […] as acid), Body lotion, Exp1, from table S1) of 0.
